Test results as given in PMC12040169 (PLOS Biology, 2025).

assay: in vitro; conditions: human, hela cells, % viability

Structure (SMILES) | viability at 28.5 h, 10 µM
CCCc1ccc(S(=O)(=O)Nc2ccc(C(=O)N(CC)CC)cc2)cc1 [CBK034403] | 92.3%
Cc1cc(F)c(S(=O)(=O)N2CCN(C)CC2)cc1NC(=O)c1cc2ccccc2o1 [CBK034419C] | 94%
CNS(=O)(=O)c1ccc(C)c(NC(C)=O)c1C [CBK034426] | 88.5%
CCOC(=O)CNS(=O)(=O)c1cc(Cl)sc1Cl [CBK034431] | 113%
CCOC(=O)CNS(=O)(=O)Cc1ccccc1[N+](=O)[O-] [CBK034439] | 95.3%
CCOC(=O)CNS(=O)(=O)c1cccc2cccnc12 [CBK034440] | 115%
Cc1ccc(S(=O)(=O)NCC(=O)O)cc1[N+](=O)[O-] [CBK034459] | 114%
O=C(O)CNS(=O)(=O)c1ccc(F)cc1 [CBK034464] | 122%
Cc1noc(C)c1S(=O)(=O)NCC(=O)N1CCOCC1 [CBK034476] | 94.9%
CN1CCN(C(=O)CNS(=O)(=O)c2ccc(Br)cc2)CC1 [CBK034478] | 101%
CCN(CC)C(=O)CNS(=O)(=O)c1ccc(C)cc1 [CBK034491] | 103%
CCN(CC)C(=O)CNS(=O)(=O)c1cc(Br)c(Cl)s1 [CBK034500] | 112%
CN1CCN(C(=O)c2ccc(NS(=O)(=O)c3cc(Cl)sc3Cl)cc2)CC1 [CBK034549] | 94%
CC(=O)Nc1ccc(S(=O)(=O)Nc2ccc(C(=O)N3CCOCC3)cc2)cc1 [CBK034564] | 94.9%
CCn1nnc(C2=CCCN(C)C2)n1 [CBK034628E] | 104%
COc1ccccc1CN(CCCN)C(=O)NC(C)c1ccccc1 (centres unmarked) [CBK034667C] | 87.3%
CC(C)(C)c1ccccc1NC(=O)N(CCCN)Cc1cc(F)cc(F)c1 [CBK034697C] | 82.7%
Cc1c(F)cccc1CN(CCCN)C(=O)Nc1ccccc1C(C)(C)C [CBK034699C] | 89.3%
N#Cc1ccsc1NS(=O)(=O)c1ccc(Cl)c(Cl)c1 [CBK034735] | 95%
O=C(NC(=O)C1CCNCC1)Nc1ccc(F)cc1F [CBK034793] | 115%
COc1cccc(NC(=O)NC(=O)C2CCN(C(C)C)CC2)c1 [CBK034798] | 89.6%
COc1cc(CNC(=O)NC(=O)C2CCN(C(C)C)CC2)cc(OC)c1OC [CBK034800] | 82.9%

Structure (SMILES) | viability at 28.5 h, 10 µM
CC(C)N1CCC(C(=O)NC(=O)NCCc2ccc3c(c2)OCO3)CC1 [CBK034804] | 96.6%
Cc1ccc(OCCNC(=O)NC(=O)C2CCN(C)CC2)c2c1CCC2 [CBK034824] | 115%
CN1CCC(C(=O)NC(=O)NC2CCCCC2)CC1 [CBK034825] | 112%
CN1CCC(C(=O)NC(=O)Nc2ccccc2F)CC1 [CBK034827] | 93.2%
COc1ccccc1NC(=O)NC(=O)C1CCN(C)CC1 [CBK034830] | 96.6%
COc1cc(NC(=O)NC(=O)C2CCN(C(C)=O)CC2)cc(OC)c1OC [CBK034831] | 114%
CC(=O)N1CCC(C(=O)NC(=O)NCc2ccc3c(c2)CCO3)CC1 [CBK034837] | 93.8%
CC(=O)N1CCC(C(=O)NC(=O)NCCOc2ccccc2Cl)CC1 [CBK034842] | 97.9%
CC(=O)N1CCC(C(=O)NC(=O)Nc2ccccc2F)CC1 [CBK034848] | 107%
CCOc1ccc(NC(=O)NC(=O)C2CCN(C(C)=O)CC2)cc1 [CBK034852] | 119%
COc1ccccc1NC(=O)NC(=O)C1CCN(C(C)=O)CC1 [CBK034853] | 119%
CC(=O)N1CCC(C(=O)NC(=O)Nc2cccc(C)c2)CC1 [CBK034854] | 94.3%
COc1ccc(CCCN2CCC(C(=O)NC(=O)Nc3cc(OC)c(OC)c(OC)c3)CC2)cc1 [CBK034855] | 86.3%
COc1cc(CNC(=O)NC(=O)C2CCN(CCc3cccc(O)c3)CC2)cc(OC)c1OC [CBK034857] | 93.2%
COc1cc(CNC(=O)NC(=O)C2CCN(CCc3c(-c4ccccc4)[nH]c4ccccc34)CC2)cc(OC)c1OC [CBK034859] | 91.7%
COc1ccc(CNC(=O)NC(=O)C2CCN(S(C)(=O)=O)CC2)c(OC)c1 [CBK034861] | 89.4%
COc1ccc(CNC(=O)NC(=O)C2CCN(CCc3c[nH]c4ccccc34)CC2)c(OC)c1 [CBK034864] | 90%
COc1ccccc1CCCN1CCC(C(=O)NC(=O)Nc2ccccc2)CC1 [CBK034865] | 89.7%
Cc1cccc(NC(=O)NC(=O)C2CCN(CCOc3ccccc3)CC2)c1 [CBK034868] | 89.9%
CC(C)c1ccc(NC(=O)NC(=O)C2CCN(CCOc3ccc4ccccc4c3)CC2)c(C(C)C)c1 [CBK034883] | 96%
O=C(NCCOc1ccccc1Cl)NC(=O)C1CCN(CCOc2ccc(Br)cc2)CC1 [CBK034897] | 84.6%
COc1ccccc1NC(=O)NC(=O)C1CCN(CCc2cccs2)CC1 [CBK034912] | 87.5%

Structure (SMILES) | viability at 28.5 h, 10 µM
CC(C)NC(=O)NC(=O)C1CCN(CCOc2ccc(Cl)cc2Cl)CC1 [CBK034949] | 106%
CNC(=O)NC(=O)C1CCN(CCc2ccccc2)CC1 [CBK034956] | 106%
CNC(=O)NC(=O)C1CCN(CCOc2ccccc2)CC1 [CBK034959] | 94.7%
CNC(=O)NC(=O)C1CCN(CCc2cccs2)CC1 [CBK034960] | 106%
CC(C)c1ccccc1NC(=O)NC(=O)C1CCN(CCc2ccc(C#N)cc2)CC1 [CBK035010] | 90.3%
CCCCOc1ccc(NC(=O)NC(=O)C2CCN(CCc3ccc(Br)cc3)CC2)cc1 [CBK035096] | 91.5%
CCCCNC(=O)NC(=O)C1CCN(CCCOc2ccccc2)CC1 [CBK035198] | 110%
Cc1ccn2c(C3CCN(CCc4ccccc4)CC3)nc(-c3ccccc3)c2c1 [CBK035490] | 89.4%
Cc1cccc(-c2nc(C3CCCNC3)n3ccccc23)c1 (centres unmarked) [CBK035528] | 92.3%
COc1ccc(-c2nc(CCN)n3ccccc23)cc1 [CBK035583] | 94.3%
COc1ccc(-c2nc(C3CCNCC3)n3ccccc23)cc1 [CBK035971] | 92.9%
O=C1C2CCCCC2C(=O)N1CCCN1CCC(c2nc(-c3ccc(F)cc3)c3ccccn23)CC1 (centres unmarked) [CBK035972] | 90.1%
NCCOc1ncccc1OCc1ccccc1 [CBK036305] | 90.7%
CNCCOc1ncccc1OCc1ccccc1 [CBK036306] | 100%
CN1CCCC1CCOc1ncccc1OCc1ccccc1 (centres unmarked) [CBK036313] | 93.1%
O=C(Nc1ccc(N2CCNCC2)c2ccccc12)c1cccnc1 [CBK036336T] | 92.9%
COc1ccc(C(=O)Nc2cc3ccccc3c(N3CCNCC3)n2)cc1 [CBK036344T] | 91.2%
O=C(Nc1cc2ccccc2c(N2CCNCC2)n1)c1cnccn1 [CBK036346T] | 95.4%
Cn1cccc1C(=O)Nc1cc2ccccc2c(N2CCNCC2)n1 [CBK036347T] | 95.5%
O=C(NCc1ccc(OC2CCNCC2)cc1)c1cccs1 [CBK036353T] | 89.8%
N#Cc1ccc(C(=O)NCc2ccc(OC3CCNCC3)cc2)cc1 [CBK036358T] | 89.5%
